Assay: xn = mol fraction of the nth substance listed

CCCOC(=O)c1ccccc1 + CCCCCCCCCCCCCC
101 kPa
Details | viscosity [mPa·s]
298.15 K, x2 = 0.0348 | 2.302
298.15 K, x2 = 0.0666 | 2.257
298.15 K, x2 = 0.0955 | 2.215
298.15 K, x2 = 0.1309 | 2.171
298.15 K, x2 = 0.1608 | 2.137
298.15 K, x2 = 0.1965 | 2.099
298.15 K, x2 = 0.2367 | 2.06
298.15 K, x2 = 0.2722 | 2.029
298.15 K, x2 = 0.307 | 2.003
298.15 K, x2 = 0.3527 | 1.974
298.15 K, x2 = 0.401 | 1.948
298.15 K, x2 = 0.4477 | 1.928
298.15 K, x2 = 0.4973 | 1.916
298.15 K, x2 = 0.549 | 1.906
298.15 K, x2 = 0.5955 | 1.905
298.15 K, x2 = 0.6516 | 1.908
298.15 K, x2 = 0.7159 | 1.921
298.15 K, x2 = 0.7647 | 1.934
298.15 K, x2 = 0.8531 | 1.97
308.15 K, x2 = 0.0488 | 1.84
308.15 K, x2 = 0.0735 | 1.808
308.15 K, x2 = 0.1091 | 1.77
308.15 K, x2 = 0.148 | 1.734
308.15 K, x2 = 0.1734 | 1.714
308.15 K, x2 = 0.215 | 1.682
308.15 K, x2 = 0.2514 | 1.659
308.15 K, x2 = 0.2896 | 1.639
308.15 K, x2 = 0.3376 | 1.62
308.15 K, x2 = 0.3703 | 1.608
308.15 K, x2 = 0.4154 | 1.596
308.15 K, x2 = 0.4616 | 1.587
308.15 K, x2 = 0.5232 | 1.58
308.15 K, x2 = 0.572 | 1.58
308.15 K, x2 = 0.6124 | 1.582
308.15 K, x2 = 0.6769 | 1.588
308.15 K, x2 = 0.7367 | 1.601
308.15 K, x2 = 0.8128 | 1.623
308.15 K, x2 = 0.8907 | 1.652
318.15 K, x2 = 0.0558 | 1.521
318.15 K, x2 = 0.0578 | 1.517
318.15 K, x2 = 0.0908 | 1.491
318.15 K, x2 = 0.1258 | 1.464
318.15 K, x2 = 0.159 | 1.442
318.15 K, x2 = 0.1985 | 1.418
318.15 K, x2 = 0.2344 | 1.399
318.15 K, x2 = 0.2777 | 1.379
318.15 K, x2 = 0.3162 | 1.364
318.15 K, x2 = 0.3637 | 1.348
318.15 K, x2 = 0.4065 | 1.337
318.15 K, x2 = 0.4576 | 1.328
318.15 K, x2 = 0.5191 | 1.321
318.15 K, x2 = 0.5622 | 1.319
318.15 K, x2 = 0.6149 | 1.32
318.15 K, x2 = 0.68 | 1.325
318.15 K, x2 = 0.7358 | 1.332
318.15 K, x2 = 0.8096 | 1.347
318.15 K, x2 = 0.9298 | 1.382

CC(C)c1ccccc1 + CCCCCCCCCCCCCCCC
viscosity [mPa·s], 100 kPa
Details | x2 = 0.0536 | x2 = 0.1093 | x2 = 0.2207 | x2 = 0.2969 | x2 = 0.4217 | x2 = 0.5376 | x2 = 0.6083 | x2 = 0.7347 | x2 = 0.823 | x2 = 0.8933
298.15 K | 0.834 | 0.921 | 1.117 | 1.249 | 1.525 | 1.815 | 2.002 | 2.356 | 2.602 | 2.783
308.15 K | 0.77 | 0.846 | 1.018 | 1.136 | 1.348 | 1.561 | 1.687 | 1.932 | 2.098 | 2.236
318.15 K | 0.688 | 0.76 | 0.904 | 1.003 | 1.176 | 1.34 | 1.444 | 1.629 | 1.756 | 1.859

CCCCCCCCCCCCCCCCCCCC + CCCCCCCCCCCCCCCC
viscosity [mPa·s], 101.3 kPa
Details | x1 = 0.2 | x1 = 0.4 | x1 = 0.5 | x1 = 0.599 | x1 = 0.8
293.2 K | 3.875 | – | – | – | –
303.2 K | 3.045 | 3.481 | 3.77 | 4.065 | –
313.2 K | 2.459 | 2.785 | 3.011 | 3.223 | 3.602

CCCCOC(C)=O + CCCCCCCCCCCCCCCC
298.15 K, 101.3 kPa
Details | viscosity [mPa·s]
x1 = 0.0797 | 2.778
x1 = 0.127 | 2.606
x1 = 0.2518 | 2.227
x1 = 0.3552 | 1.944
x1 = 0.4446 | 1.716
x1 = 0.5252 | 1.539
x1 = 0.5544 | 1.484
x1 = 0.594 | 1.39
x1 = 0.7165 | 1.149
x1 = 0.8169 | 0.9655
x1 = 0.8982 | 0.834
x1 = 0.952 | 0.7259

C=COC(C)=O + CCCCCCCCCCO
303.15 K, 101.33 kPa
Details | viscosity [mPa·s]
x1 = 0.1013 | 6.774
x1 = 0.1998 | 4.804
x1 = 0.3007 | 3.437
x1 = 0.3991 | 2.488
x1 = 0.5006 | 1.793
x1 = 0.6004 | 1.31
x1 = 0.6957 | 0.952
x1 = 0.8003 | 0.682
x1 = 0.904 | 0.489

CCCN + CCCCCCCCCCO
viscosity [mPa·s], 101.33 kPa
Details | x1 = 0.0915 | x1 = 0.1817 | x1 = 0.283 | x1 = 0.3906 | x1 = 0.4858 | x1 = 0.59 | x1 = 0.718 | x1 = 0.8181 | x1 = 0.9058
303.15 K | 7.465 | 6.249 | 5.036 | 3.906 | 3.037 | 2.211 | 1.384 | 0.8865 | 0.5706
313.15 K | 5.86 | 4.82 | 3.89 | 2.973 | 2.284 | 1.654 | 1.051 | 0.7052 | 0.481

C=COC(C)=O + CCCCCCCCO
303.15 K, 101.33 kPa
Details | viscosity [mPa·s]
x1 = 0.1001 | 4.448
x1 = 0.2008 | 3.155
x1 = 0.3002 | 2.302
x1 = 0.4017 | 1.705
x1 = 0.4997 | 1.279
x1 = 0.6008 | 0.965
x1 = 0.6993 | 0.743
x1 = 0.7981 | 0.577
x1 = 0.8965 | 0.459
